Bounds are passed on as bounds.

Experimental findings from patent US20240316038A1, “APOL1 INHIBITORS AND METHODS OF USE” (Maze Therapeutics, Inc., priority 2021, published 2024) are described below.

Test [1] concerns the target T1, APOL1 G2 (Homo sapiens, UniProt O14791, DEL388-389).
T1 construct: expressed in transfected cells; host or cells: HEK293 T-REx clonal lines: HEK T-REx/GCaMP6f/APOL1 G2 K6.3 in A1, HEK293/T-REx APOL1 G2/clone #2 in A2
T1 sequence (O14791 with tags, fused parts or gaps DEL388-389): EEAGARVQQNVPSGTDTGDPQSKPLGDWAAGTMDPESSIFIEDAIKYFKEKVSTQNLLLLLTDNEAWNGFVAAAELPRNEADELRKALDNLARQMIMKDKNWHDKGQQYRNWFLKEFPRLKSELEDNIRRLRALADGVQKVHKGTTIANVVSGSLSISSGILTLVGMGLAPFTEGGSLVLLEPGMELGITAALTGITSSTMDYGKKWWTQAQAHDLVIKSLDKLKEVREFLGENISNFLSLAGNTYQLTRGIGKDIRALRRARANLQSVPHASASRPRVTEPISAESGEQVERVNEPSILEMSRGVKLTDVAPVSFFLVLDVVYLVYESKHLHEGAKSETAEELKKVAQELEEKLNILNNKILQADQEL
As to the kind of experiment: APOL1 calcium transport inhibition assay (GCaMP6f calcium influx, FLIPR) in HEK T-REx/GCaMP6f/APOL1 G2 K6.3 cells. Format: cell-based. Particulars: inhibition of APOL1-mediated calcium influx; geometric mean of at least 2 assay runs, † = single assay run (technical duplicate). In short, it runs like this:
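HEK293 cells stably expressing GCaMP6f, APOL1 G2 induced 6 h with doxycycline (20 ng/mL added), then washed into Ca2+-free Tyrode's buffer pH 7.4. Compounds (8-point dose response) preincubated 10 min at room temperature, then Ca2+ injected to 5 mM final and influx read on FLIPR. AC50 reported as geometric mean of runs.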

For test [2], the target named is T1, APOL1 G2. Briefly: Rescue of HEK293 cell death caused by overexpression of APOL1 (CellTiter-Glo luminescence), HEK293/T-REx APOL1 G2/clone #2. The note with it: reversal of cell death caused by overexpression of APOL1; geometric mean of at least 2 assay runs, † = single assay run (technical duplicate). Format: cell-based. The essentials: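 HEK293/T-REx APOL1 G2 clone #2 cells, 5,000/well, induced with 6 ng/mL doxycycline and exposed to compound (8-point, 3-fold dilutions, 0.5% DMSO) for 17 h at 37 °C. Viability by CellTiter-Glo luminescence; EC50 for reversal of APOL1-induced death from a four-parameter logistic fit, geometric mean of ≥2 runs.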

Take `CC(Cc1cccc(Cl)c1)NC[C@H](O)COc1ccc(N(C)S(C)(=O)=O)cc1` (single isomer, unassigned) [Compound 95, N-(4-((S)-3-(((S) or (R)-1-(3-chlorophenyl)propan-2-yl)amino)-2-hydroxypropoxy)phe-nyl)-N-methylmethanesulfon-amide]: the AC50 on APOL1 G2 [1] was determined as 1.54 µM. In addition, the EC50 on APOL1 G2 [2] was found to be 6.9 µM.
On the same counts, the results for `CC(Cc1cccc(Cl)c1)NC[C@H](O)COc1ccc(N(C)S(C)(=O)=O)cc1` (single isomer, unassigned) [Compound 96, N-(4-((S)-3-(((R) or (S)-1-(3-chlorophenyl)propan-2-yl)amino)-2-hydroxypropoxy)phe-nyl)-N-methylmethanesulfon-amide] are 3.77 µM and > 30 µM.
In the case of `CN(c1ccc(OCC(C)(O)CNCCc2cccc(Cl)c2)cc1)S(C)(=O)=O` (single isomer, unassigned) [Compound 103, (R) or (S)-N-(4-(3-((3-chlorophenethyl)a-mino)-2-hydroxy-2-methylpropxy)phe-nyl)-N-methylmethanesulfon-amide], the AC50 on APOL1 G2 [1] is 10.9 µM. For the same compound, the EC50 on APOL1 G2 [2] was > 30 µM.
Regarding `CN(c1ccc(OCC(C)(O)CNCCc2cccc(Cl)c2)cc1)S(C)(=O)=O` (single isomer, unassigned) [Compound 104, (S) or (R)-N-(4-(3-((3-chlorophenethyl)a-mino)-2-hydroxy-2-methylpropoxy)phe-nyl)-N-methylmethanesulfon-amide], on APOL1 G2 [1], the AC50 is < 0.382 µM. The EC50 on APOL1 G2 [2] turned out to be 1.86 µM.
With `CN(c1ccc(NCC(O)CNCCc2cccc(Cl)c2)cc1)S(C)(=O)=O` (single isomer, unassigned) [Compound 106, (R) or (S)-N-(4-((3-((3-chlorophenethyl)a-mino)-2-hydroxypropyl)ami-no)phenyl)-N-methylmethanesulfon-amide], at APOL1 G2 [1], the AC50 was determined as 2.79 µM. Moreover, the EC50 on APOL1 G2 [2] was 6.24 µM.
As for `COCCS(=O)(=O)c1ccc(OC[C@H]2CN(CCc3cccc(Cl)c3)C[C@@H]2C)cc1` (single isomer, unassigned) [Compound 110, (3R,4R or 3S,4S)-1-[2-(3-chlorophenyl)ethyl]-3-{[4-(2-methoxyethane-sulfonyl)phenoxy]methyl}-4-methylpyrrolidine], at APOL1 G2 [1], the AC50 came to 0.0914 µM. Also, the half-maximal effective concentration (EC50) on APOL1 G2 [2] was determined as 0.135 µM.
`COCCS(=O)(=O)c1ccc(OC[C@@H]2CN(CCc3cccc(Cl)c3)C[C@H]2C)cc1` (single isomer, unassigned) [Compound 111, (3S,4S or 3R,4R)-1-[2-(3-chlorophenyl)ethyl]-3-{[4-(2-methoxyethane-sulfonyl)phenoxy]methyl}-4-methylpyrrolidine]: the AC50 at APOL1 G2 [1] worked out at 0.494 µM. In addition, the EC50 at APOL1 G2 [2] turned out to be 1.88 µM.
Take `C[C@H]1CN(CCc2cccc(Cl)c2)C[C@@H]1COc1ccc(S(=O)(=O)CCO)cc1` (single isomer, unassigned) [Compound 112, 2-(4-{[(3R,4R or 3S,4S)-1-[2-(3-chlorophenyl)ethyl]-4-methylpyrrolidin-3-yl]methoxy}benzene-sulfonyl)ethan-1-ol]: the AC50 on APOL1 G2 [1] was > 0.159 µM. For the same compound, the half-maximal effective concentration (EC50) on APOL1 G2 [2] turned out to be 0.0298 µM.
As for `C[C@@H]1CN(CCc2cccc(Cl)c2)C[C@H]1COc1ccc(S(=O)(=O)CCO)cc1` (single isomer, unassigned) [Compound 113, 2-(4-{[(35,4S or 3R,4R)-1-[2-(3-chlorophenyl)ethyl]-4-methylpyrrolidin-3-yl]methoxy}benzene-sulfonyl)ethan-1-ol], the AC50 at APOL1 G2 [1] came to 0.907 µM. The EC50 at APOL1 G2 [2] is 1.07 µM.
In the case of `C[C@@H]1C[C@H](COc2ccc(S(C)(=O)=O)cc2)CN1CC(O)c1cc(Cl)cc(C#N)c1` (single isomer, unassigned) [Compound 114, 3-chloro-5-[(1S or 1R)-1-hydroxy-2-[(2R,4S)-4-[(4-methanesulfonylphenoxy)methyl]-2-methylpyrrolidin-1-yl]ethyl] benzonitrile], the AC50 on APOL1 G2 [1] worked out at 0.709 µM. For the same compound, the EC50 on APOL1 G2 [2] amounted to 0.439 µM.
`C[C@@H]1C[C@H](COc2ccc(S(C)(=O)=O)cc2)CN1CC(O)c1cc(Cl)cc(C#N)c1` (single isomer, unassigned) [Compound 115, 3-chloro-5-[(1R or 1S)-1-hydroxy-2-[(2R,4S)-4-[(4-methanesulfonylphenoxy)methyl]-2-methylpyrrolidin-1-yl]ethyl] benzonitrile]: the AC50 on APOL1 G2 [1] turned out to be 0.756 µM. Besides, the EC50 at APOL1 G2 [2] worked out at 0.0447 µM.
For the compound `C[C@@H]1C[C@H](COc2ccc(S(C)(=O)=O)cc2)CN1CC(O)c1cccc(C#N)c1` (single isomer, unassigned) [Compound 116, 3-[(1R or 1S)-1-hydroxy-2-[(2R,4S)-4-[(4-methanesulfonylphenoxy)methyl]-2-methylpyrrolidin-1-yl]ethyl] benzonitrile], on APOL1 G2 [1], the AC50 is 0.374 µM. Further, on APOL1 G2 [2], the half-maximal effective concentration (EC50) was determined as 0.076 µM.
As to `C[C@@H]1C[C@H](COc2ccc(S(C)(=O)=O)cc2)CN1CC(O)c1cccc(C#N)c1` (single isomer, unassigned) [Compound 117, 3-[(1S or 1R)-1-hydroxy-2-[(2R,4S)-4-[(4-methanesulfonylphenoxy)methyl]-2-methylpyrrolidin-1-yl]ethyl] benzonitrile], on APOL1 G2 [1], the AC50 stood at 1.08 µM. The EC50 at APOL1 G2 [2] came to 1.24 µM.
Take `C[C@@H]1C[C@H](COc2ccc(S(C)(=O)=O)cc2)CN1CC(O)c1cc(C#N)cc(C#N)c1` (single isomer, unassigned) [Compound 118, 5-[(1R or 1S)-1-hydroxy-2-[(2R,4S)-4-[(4-methanesulfonylphenoxy)methyl]-2-methylpyrrolidin-1-ylethyl]benzene-1,3-dicarbonitrile]: the AC50 on APOL1 G2 [1] was 0.936 µM. Also, the half-maximal effective concentration (EC50) on APOL1 G2 [2] stood at 4.04 µM.
Turning to `C[C@@H]1C[C@H](COc2ccc(S(C)(=O)=O)cc2)CN1CC(O)c1cc(C#N)cc(C#N)c1` (single isomer, unassigned) [Compound 119, 5-[(1S or 1R)-1-hydroxy-2-[(2R,4S)-4-[(4-methanesulfonylphenoxy)methyl]-2-methylpyrrolidin-1-yl]ethyl]benzene-1,3-dicarbonitrile], the AC50 on APOL1 G2 [1] worked out at 0.784 µM. The EC50 on APOL1 G2 [2] worked out at 0.133 µM.
For the compound `C[C@@H]1CN(CC(O)c2cc(Cl)cc(C#N)c2)C[C@H]1COc1ccc(S(C)(=O)=O)cc1` (single isomer, unassigned) [Compound 121, 3-chloro-5-[(1S or 1R)-1-hydroxy-2-[(3S,4S)-3-[(4-methanesulfonylphenoxy)methyl]-4-methylpyrrolidin-1-ylethyl]benzonitrile], on APOL1 G2 [1], the AC50 turned out to be 0.27 µM. The EC50 on APOL1 G2 [2] amounted to 0.1 µM.
Regarding `C[C@@H]1CN(CC(O)c2cc(Cl)cc(C#N)c2)C[C@H]1COc1ccc(S(C)(=O)=O)cc1` (single isomer, unassigned) [Compound 122, 3-chloro-5-[(1R or 1S)-1-hydroxy-2-[(3S,4S)-3-[(4-methanesulfonylphenoxy)methyl]-4-methylpyrrolidin-1-yl]ethyl] benzonitrile], at APOL1 G2 [1], the AC50 was found to be 0.709 µM. Moreover, the EC50 on APOL1 G2 [2] is 1.34 µM.
`C[C@@H]1CN(CC(O)c2cccc(Cl)c2)C[C@H]1COc1ccc(S(C)(=O)=O)cc1` (single isomer, unassigned) [Compound 124, (1R or 1S)-1-(3-chlorophenyl)-2-[(3S,4S)-3-[(4-methanesulfonylphenoxy)methyl]-4-methylpyrrolidin-1-yl]ethan-1-ol]: the AC50 on APOL1 G2 [1] worked out at 0.148 µM. Besides, on APOL1 G2 [2], the EC50 came out at 0.242 µM.
For the compound `C[C@@H]1CN(CC(O)c2cccc(Cl)c2)C[C@H]1COc1ccc(S(C)(=O)=O)cc1` (single isomer, unassigned) [Compound 125, (1S or 1R)-1-(3-chlorophenyl)-2-[(3S,4S)-3-[(4-methanesulfonylphenoxy)methyl]-4-methylpyrrolidin-1-yl]ethan-1-ol], the AC50 at APOL1 G2 [1] is 2.35 µM. The EC50 at APOL1 G2 [2] is 1.55 µM.
With `C[C@@H]1CN(CC(O)c2cccc(C#N)c2)C[C@H]1COc1ccc(S(C)(=O)=O)cc1` (single isomer, unassigned) [Compound 127, 3-[(1S or 1R)-1-hydroxy-2-[(3S,4S)-3-[(4-methanesulfonylphenoxy)methyl]-4-methylpyrrolidin-1-yl]ethyl] benzonitrile], on APOL1 G2 [1], the AC50 is 2.48 µM. For the same compound, the EC50 at APOL1 G2 [2] was > 10 µM.
`C[C@@H]1CN(CC(O)c2cccc(C#N)c2)C[C@H]1COc1ccc(S(C)(=O)=O)cc1` (single isomer, unassigned) [Compound 128, 3-[(1R or 1S)-1-hydroxy-2-[(35,4S)-3-[(4-methanesulfonylphenoxy)methyl]-4-methylpyrrolidin-1-ylethyl]benzonitrile]: the AC50 on APOL1 G2 [1] was 0.349 µM. In addition, the EC50 on APOL1 G2 [2] came to 0.366 µM.
